Experimental data reported in patent publication US11540987B2, “Composition with stabilized taste and odor (II)” (SYMRISE AG, priority 2015, dated 2023).

Assay: ABTS-assay, inhibition of radical formation
Format: biochemical
Conditions: for IC50: absorption at 734 nm, mean value from at least 2 independent tests
Procedure: By means of the ABTS-assay the anti-oxidative capacity of 4-hydroxyacetophenone and alpha-tocopherol was compared. 2,2′-azino bis-(3-ethylbenzothiazoline 6-sulfonic acid) (ABTS) was transformed by potassium persulfate into the blue-green radical cation ABTS•^+. Through the addition of 4-hydroxyacetophenone and alpha-tocopherol the radical cations were reduced and discoloration was observed, which was determined photometrically by Absorption at 734 nm. The inhibition of the radical formation of the test substance is calculated by the following formula:
[formula] Wherein the abbreviations have the following meanings: • Atest substance: Absorption of the wells with test substance including 4-hydroxyacetophenone and alpha-tocopherol • Acontrol: Absorption of the wells without test substance
From the inhibition of the radical formation [%] in a series of dilutions of tested samples the IC50 was calculated. This is the concentration at which the radical formation is inhibited by 50%.

| IC50 | fold higher IC50 value than alpha-tocopherol | SMILES | antioxidant activity compared with alpha-tocopherol (in words) |
| --- | --- | --- | --- |
| 26.8 µM | – | Cc1c(C)c2c(c(C)c1O)CC[C@@](C)(CCC[C@H](C)CCC[C@H](C)CCCC(C)C)O2 [alpha-tocopherol, reference compound] | – |
| 262 µM | 10 fold | CC(=O)c1ccc(O)cc1 [4-hydroxyacetophenone] | much weaker antioxidant activity |
